Measurements as given in article PMC9995496, “A screen for MeCP2-TBL1 interaction inhibitors using a luminescence-based assay” (Scientific Reports, 2023).
Counter-ions that a name gives are not always drawn. Like-named read-outs stand apart in the source and are kept apart here.

Test system: PRKACA-PRKAR2A interaction (SmBiT-PRKACA / LgBiT-PRKAR2A), protein kinase A
Set-up: NanoLuc complementation counter-screen in cell extract, PRKACA with PRKAR2A, loss of luminescence, detects NanoLuc interference
Conditions: 0.5 h, 20 µM, inhibitor
[1] = counter-screen for NanoLuc interference
[2] = counter-screen for NanoLuc interference, Inh (PKA)

Compound | Inh (PKA) [1] [%] | also measured
C=CC(=O)Nc1cc(Nc2nccc(-c3c[nH]c4ccccc34)n2)c(OC)cc1N(C)CCN(C)C [UM0142657:01, AZ5104] | 4.603 | –
CN(C)S(=O)(=O)c1ccc2c(c1)/C(=C/c1cc3c([nH]1)CCCC3)C(=O)N2 [UM0142659:01, SU6656] | 52.64 | –
Nc1nc(NC2CC2)cc(-c2cccc(Cl)c2Cl)n1 [UM0142662:01, TH588] | 10.71 | –
Cc1cn(-c2cc(NC(=O)c3ccc(C)c(Nc4nccc(-c5cnccn5)n4)c3)cc(C(F)(F)F)c2)cn1 [UM0142663:01, Radotinib(IY-5511)] | 10.62 | –
CNc1cc(-c2cccc(Cl)c2Cl)nc(N)n1 [UM0142665:01, TH287] | 9.555 | –
FC(F)(F)Oc1ccc(-c2ccc3nnc(C(F)(F)F)n3c2)cc1 [UM0142666:01, GS967] | 6.579 | –
CN1CCN(c2ccc(C(=O)Nc3n[nH]c4ccc(Cc5cc(F)cc(F)c5)cc34)c(NC3CCOCC3)c2)CC1 [UM0142673:01, Entrectinib] | 20.65 | –
CNC(=O)c1c(C)oc2cc(Oc3ncnc4cc(OC)c(OC)cc34)ccc12 [UM0142676:01, Fruquintinib(HMPL-013)] | 4.605 | –
O=C(Nc1ccc2[nH]nc(-c3ccncc3)c2c1)[C@@H]1CCN(CC(=O)N2CCN(c3ccc(-c4ncccn4)cc3)CC2)C1 [UM0142677:01, SCH772984 HCl] | – | Inh (PKA) [2]: 18.36%
Cc1ccc2nc(N)[nH]c(=O)c2c1Sc1ccncc1 [UM0142685:01, Nolatrexed (AG-337)] | 7.912 | –
CC#CC(=O)Nc1ccc2ncnc(Nc3cccc(Br)c3)c2c1 [UM0142687:01, CL-387785 (EKI-785)] | 17.86 | –
O=C(O)C(=O)c1cn(Cc2ccccc2)c2ccc(-c3ccc(OC(F)(F)F)cc3)cc12 [UM0142688:01, Tiplaxtinin(PAI-039)] | 36.69 | –
Nc1ccc(/C=C/C(=O)NCc2cc3cc(-c4ccc(C(=O)N5CCC(F)(F)CC5)cc4)cc(-c4ccc(F)cc4)c3o2)cn1 [UM0142694:01, KPT-9274] | 5.106 | –
N#CC(c1ccnc(NCCc2cccnc2)n1)c1nc2ccccc2s1 (stereo not drawn) [UM0142696:01, AS601245] | 54.87 | –
CN1CCN(c2ccc3nc(-c4c(N)c5c(F)cccc5[nH]c4=O)[nH]c3c2)CC1 [UM0142698:01, Dovitinib (TKI258) Lactate] | – | Inh (PKA) [2]: 21.22%
COc1cc2ncnc(Nc3cccc(Cl)c3F)c2cc1OC(=O)N1CCN(C)C[C@H]1C [UM0142700:01, AZD3759] | 7.884 | –
CNCC(O)c1ccc(O)cc1 (stereo not drawn) [UM0142702:01, Synephrine] | 1.654 | –
O=C(Cc1ccccc1)Nc1nnc(CCSCCc2nnc(NC(=O)Cc3ccccc3)s2)s1 [UM0142712:01, BPTES] | 8.754 | –
CC(=O)c1cc2c(o1)C(=O)c1ccccc1C2=O [UM0142718:01, Napabucasin] | 2.166 | –
Cc1ccc(Nc2ncc3c(n2)N(C)C(=O)N(c2cc(NC(=O)c4cccc(C(F)(F)F)c4)ccc2C)C3)cn1 [UM0142721:01, GNF-7] | 15.96 | –
CC(C)Oc1ccc(-c2nc(-c3cccc4c3CC[C@@H]4NCCO)no2)cc1C#N [UM0142722:01, Ozanimod (RPC1063)] | 8.033 | –
O=C(NCC(=O)N1CCCC1)Nc1ccc2cnccc2c1 [UM0142726:01, SGC707] | 9.797 | –
O=C(Nc1cc(Cl)cc2c1[nH]c1cnccc12)c1cccnc1 [UM0142732:01, PS-1145] | 3.261 | –

Compound | Inh (PKA) [1] [%] | also measured
COC(=O)c1ccc([C@@H]2c3[nH]c4ccccc4c3C[C@@H](C(=O)OC)N2C(=O)CCl)cc1 [UM0142735:01, RSL3] | 22.95 | –
Cc1c(Cl)cccc1S(=O)(=O)Nc1nc(CC(=O)N2CCN(C)CC2)cs1 [UM0142740:01, BVT 2733] | 1.989 | –
CCOC(=O)COc1ccc(/C=C2\SC(=S)NC2=O)cc1OC [UM0142743:01, IMR-1] | 35.49 | –
COc1ccc(/C=C(\C#N)c2cccnc2)cc1OC [UM0142745:01, RG 13022] | 13.99 | –
Cc1cn(CCN2CCN(c3ccccc3-c3cc(C#N)cc(C(=O)NCCCN4CCCC4)c3)CC2)c2ccccc12 [UM0142746:01, LLY507] | 10.14 | –
Nc1nccc2c1ncn2[C@@H]1O[C@H](CO)[C@@H](O)[C@H]1O [UM0142748:01, 3-Deazaadenosine] | -15.82 | –
Nc1ncc(-c2ccnc(Nc3ccncc3)n2)c(CC2CC2)n1 [UM0142752:01, PIK-III] | 17.17 | –
COc1cc(OCc2cccc(-c3ccccc3)c2C)cc(OC)c1CN1CCCC[C@H]1C(=O)O [UM0142755:01, PD-1/PD-L1 inhibitor 1] | 7.667 | –
CN1CCc2cc(Nc3ncc(C4CC4)c(NCCCNC(=O)C4CCC4)n3)ccc2C1 [UM0142756:01, MRT68921] | 22 | –
O=C(Nc1cnn2ccc(N3CCC[C@@H]3c3cc(F)ccc3F)nc12)N1CC[C@H](O)C1 [UM0142757:01, LOXO-101] | 0.6062 | –
CC(C)(C)C(=O)Oc1ccc(S(=O)(=O)Nc2ccccc2C(=O)NCC(=O)O)cc1 [UM0142761:01, Sivelestat (ONO-5046)] | -0.1491 | –
Cc1ccc2nc(CN(CCN(Cc3nc4ccc(C)cc4[nH]3)Cc3nc4ccc(C)cc4[nH]3)Cc3nc4ccc(C)cc4[nH]3)[nH]c2c1 [UM0142762:01, NSC348884] | 3.32 | –
COc1cc(-c2cn(C)c(=O)c3cnccc23)cc(OC)c1CN(C)C [UM0142765:01, BI-7273] | 0.4975 | –
CCCOc1ccc(CCc2nc3cc(-c4c(C)noc4C)ccc3n2CCN2CCOCC2)cc1 [UM0142766:01, PF-CBP1] | 9.037 | –
N=C(N)NN [UM0142771:01, Aminoguanidine hydrochloride] | 0.824 | –
CC(C)SC(=N)N [UM0142772:01, S-Isopropylisothiourea hydrobromide] | 0.4324 | –
CS(=O)(=O)Nc1ccc([N+](=O)[O-])cc1OC1CCCCC1 [UM0142773:01, NS 398] | 50.11 | –
CCCOc1ccccc1-c1nc2[nH]nnc2c(=O)[nH]1 [UM0142774:01, Zaprinast] | 3.478 | –
CC1=Nc2ccc(Cl)cc2S(=O)(=O)N1 [UM0142775:01, Diazoxide] | -0.314 | –
COc1ccc(CCCOC(Cn2ccnc2)c2ccc(OC)cc2)cc1 (stereo not drawn) [UM0142776:01, SKF 96365 hydrochloride] | 35.58 | –
CC(N)=NCc1cccc(CN)c1 [UM0142778:01, 1400W dihydrochloride] | -1.118 | –
CN(C)CCCC1(c2ccc(F)cc2)OCc2cc(C#N)ccc21 (stereo not drawn) [UM0142779:01, Citalopram hydrobromide] | 0.9875 | –
Nc1ncnc2c1ncn2C1CCCO1 (stereo not drawn) [UM0142780:01, SQ 22536] | -2.134 | –

Compound | Inh (PKA) [1] [%] | also measured
O=C1OC2(c3ccccc31)c1ccc(O)c(O)c1Oc1c2ccc(O)c1O [UM0142786:01, Gallein] | 24.58 | –
C[C@H](NC(=O)c1sccc1OCc1ccc(Cl)cc1)c1ccccc1 [UM0142788:01, AS 1949490] | 58.85 | –
N[C@@H]1C[C@H]1c1ccccc1 [UM0142789:01, Tranylcypromine hydrochloride] | -0.9566 | –
COc1ccc(C[C@H](N)C(=O)N[C@H]2[C@@H](O)[C@H](n3cnc4c(N(C)C)ncnc43)O[C@@H]2CO)cc1 [UM0142790:01, Puromycin dihydrochloride] | -1.723 | –
C=CCNc1ncnc2ccc(Br)cc12 [UM0142792:01, SMER 28] | 2.149 | –
CC(C)(C)c1ccc(S(=O)(=O)NCc2ccc(C(=O)Nc3cccnc3)cc2)cc1 [UM0142793:01, STF 31] | 3.916 | –
O=C(O)[C@@]1(CCCCCCOc2ccc(Cl)cc2)CO1 [UM0142794:01, (R)-(+)-Etomoxir sodium salt] | 1.565 | –
CC(C(=O)O)C(=O)O [UM0142795:01, Methylmalonate] | – | Inh (PKA): -2.942
COc1nccnc1NS(=O)(=O)c1ccc(NC(=O)/C=C/c2ccc([N+](=O)[O-])s2)cc1 [UM0142796:01, Necrosulfonamide] | 27.6 | –
COc1cc2c(NC3CCN(C(C)C)CC3)nc(N3CCC(F)(F)CC3)nc2cc1OCCCN1CCCC1 [UM0142799:01, UNC 0642] | 0.7014 | –
COc1ccc(N(C)c2nc(C)nc3ccccc23)cc1 [UM0142800:01, MPC 6827 hydrochloride] | 22.54 | –
CCc1c(-c2ccccc2)c(-c2ccccc2)nn1-c1ccccc1-c1cccc(OCC(=O)O)c1 [UM0142801:01, BMS 309403] | 85.65 | –
Nc1nccc(Oc2ccc3c(C(=O)Nc4cccc(C(F)(F)F)c4)cccc3c2)n1 [UM0142802:01, BAW2881 (NVP-BAW2881)] | 7.673 | –
C[C@@H]1CC(=O)Nc2cccc(-c3ccc4c(c3)c(-c3cnn(C)c3)nn4C)c2N1 [UM0142803:01, CPI-637] | 3.742 | –
Cc1ccc(C(=O)OCc2ccc([C@@H](CN)C(=O)Nc3ccc4cnccc4c3)cc2)c(C)c1 [UM0142804:01, Netarsudil (AR-13324)] | 32.51 | –
Oc1cc(CNC(=S)/C=C/c2cc(O)c(O)c(Br)c2)cc(O)c1O [UM0142805:01, NT157] | 30.97 | –
COc1ccc(Cn2c3ncnc4c(ncn4Cc4ccc(OC)cc4)c-3nc2=O)cc1 [UM0142806:01, RK-33] | 7.723 | –
CN(C)CCCOc1ccc(-c2ccc3ncc4c(c3c2)n(C2CCOCC2)c(=O)n4C)cn1 [UM0142808:01, AZD0156] | -0.519 | –
O=C(O)C(O)C(O)C(=O)O (stereo not drawn) [UM0142810:01, Sodium tartrate] | 0.7692 | –
c1c[nH]cn1 [UM0142811:01, Imidazole] | 0.004759 | –
Nc1ccc(C(=O)O)cc1 [UM0142813:01, 4-Aminobenzoic acid] | -1.147 | –
O[C@H]1[C@H](O)[C@@H](O)[C@H](O)[C@@H](O)[C@H]1O [UM0142814:01, myo-Inositol] | -0.9273 | –
CCCCCCCCCCCCCC(=S)NCCCC[C@H](NC(=O)OCc1ccccc1)C(=O)Nc1ccccc1 [UM0142815:01, Thiomyristoyl] | -1.991 | –
